Earlier results, collected in US7368472B2, “1,2,4-Triaminobenzene derivatives useful for treating disorders of the central nervous system” (priority 2002, dated 2008).

Tests used:
[1] = system: animal models of anxiety-like behaviour; details: in vivo
[2] = system: kainic acid-induced status epilepticus; details: rat
[3] = system: amygdala kindling model of complex partial seizures; details: in vivo
[4] = system: incidence of seizures in epileptic patients
[5] = system: electrically induced seizures, seizures induced chemically by pentylenetetrazole, picrotoxin and NMDA, DBA/2 mouse; details: oral and intraperitoneal administration, rats and mice
[6] = system: K(+) current in neuronal cells
hippocampal kindling = details: rat

## CCOC(=O)Nc1ccc(NCc2ccc(F)cc2)cc1N [Retigabine, N-(2-amino-4-(4-fluorobenzylamino)-phenyl) carbamic acid ethyl ester]
[1]
  activity in models of anxiety-like behaviour: active
[2]
  neuroprotection after status epilepticus: prevent limbic neurodegeneration and the expression of markers of apoptosis
[3]
  activity in amygdala kindling model: active
[4]
  reduction of seizure incidence in clinical trials: effectiveness in reducing the incidence of seizures
[5]
  activity in anticonvulsant tests: active
[6]
  activation of K(+) current: activate a K(+) current
Hippocampal kindling
  progression of hippocampal kindling: delay the progression of hippocampal kindling
